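Cultured in 96-well plates, cells were exposed to test compound for 48 hours across five concentrations. Here, GI50 denotes the concentration required for 50% inhibition of growth. TGI is the concentration that stops growth completely.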
Assays:
Experiment in all cases: inhibition of tumour cell growth, NCI panel, 48 h
786-0 renal = tested on: 786-0 renal
BT-549 breast = tested on: BT-549 breast
MDA-MB-231 breast = tested on: MDA-MB-231 breast
NCI/ADR-RES ovarian = tested on: NCI/ADR-RES ovarian
OVCAR-4 ovarian = tested on: OVCAR-4 ovarian
SK-OV-3 ovarian = tested on: SK-OV-3 ovarian
A498 renal = tested on: A498 renal
IGROV1 ovarian = tested on: IGROV1 ovarian
UACC-257 melanoma = tested on: UACC-257 melanoma
HCC-2998 colon = tested on: HCC-2998 colon

| Compound | GI50 (786-0 renal) [µM] | TGI (786-0 renal) [µM] | GI50 (BT-549 breast) [µM] | TGI (BT-549 breast) [µM] | GI50 (MDA-MB-231 breast) [µM] | TGI (MDA-MB-231 breast) [µM] | GI50 (NCI/ADR-RES ovarian) [µM] | TGI (NCI/ADR-RES ovarian) [µM] | GI50 (OVCAR-4 ovarian) [µM] | TGI (OVCAR-4 ovarian) [µM] | GI50 (SK-OV-3 ovarian) [µM] | TGI (SK-OV-3 ovarian) [µM] | TGI (A498 renal) [µM] | TGI (IGROV1 ovarian) [µM] | TGI (UACC-257 melanoma) [µM] | GI50 (A498 renal) [µM] | GI50 (HCC-2998 colon) [µM] | TGI (HCC-2998 colon) [µM] | GI50 (IGROV1 ovarian) [µM] | GI50 (UACC-257 melanoma) [µM] |
| --- | --- | --- | --- | --- | --- | --- | --- | --- | --- | --- | --- | --- | --- | --- | --- | --- | --- | --- | --- | --- |
| COc1cccc(CCNC(=O)CC(c2ccccc2)(c2ccccc2)c2ccccc2)c1 | 10.6 | > 100 | > 100 | > 100 | > 100 | > 100 | 5.26 | > 100 | > 100 | > 100 | > 100 | > 100 |  |  |  |  |  |  |  |  |
| CCc1cccc(C)c1N1C(=O)C(=O)C(c2nc3ccccc3o2)/C(=N/NC(=S)NN)C1=O (configuration not stated) |  | > 100 |  |  |  |  |  |  |  | > 100 |  | > 100 | > 100 | > 100 | > 100 |  |  |  |  |  |
| [N-]=[N+]=NCCCn1c2c(c3ccc([N+](=O)[O-])cc3c1=O)C(=O)c1cc(I)ccc1-2 | 3.17 | 16 |  |  | > 100 | > 100 | 4.17 | 46.6 | 60 | > 100 | 2.11 | 8.74 | 28.5 | 65.5 | > 100 | 6.52 | 11.7 | 59.3 | 1.95 | 26.7 |
| CC12CC/C(=N/NC(N)=O)C3C1CCCC32 |  | > 100 |  |  |  |  |  |  |  | > 100 |  | > 100 | > 100 | > 100 | > 100 |  |  | > 100 |  |  |
| O=C(COc1cccc(/C=C2\COc3ccccc3C2=O)c1)c1ccccc1 | 5.85 | 19 | 5.3 | 22.2 | 10.6 | 22.9 | 3.26 | 11.8 | 3.84 | 15.4 | 15.2 | 29 | 6.78 | 3.96 | 18.6 | 0.266 |  |  | 2.18 | 6.03 |
| CCC(C)C(=O)O[C@H]1C(=O)O[C@@H]2C[C@H]3C(C)=CC(=O)[C@@H](O)[C@]3(C)[C@H]3[C@@H](O)[C@H](O)[C@@]4(C)OC[C@]32[C@@H]14 (some centres not stated) |  | 0.645 |  |  |  | 0.388 |  |  |  | < 0.01 |  | 0.58 | < 0.01 | 0.0889 | < 0.01 |  |  | < 0.024 |  |  |
| CN(C)CCCOc1ccc(/C=C2/CCC/C(=C/c3ccc(OCCCN(C)C)cc3)C2=O)cc1 |  | 2.59 |  |  |  |  |  |  |  | 7.1 |  | 4.18 | 3.65 | 6.78 | 3.93 |  |  | 3.12 |  |  |
| CCC[CH2][Sn]1([CH2]CCC)[O]C(=O)CN=C(C)c2ccccc2[O]1 | 1.29 | 2.58 |  |  |  |  |  |  | 1.73 | 3.62 | 2.37 | 4.14 | 11.4 | > 100 | 2.2 | 2.72 | 1.53 | 2.92 | 2.83 | 0.955 |
| COC(=O)C(=O)C(C#N)c1cccc(Cl)c1 (configuration not stated) |  | > 100 |  |  |  |  |  |  |  | > 100 |  | > 100 | > 100 | > 100 | > 100 |  |  | > 100 |  |  |
| COc1ccc(/C(=C/c2ccc3ccccc3c2)c2nn[nH]n2)cc1OC | 5.72 | > 100 | 10.9 | > 100 | 12.5 | > 100 | 1.03 | > 100 | 7.78 | > 100 | 3.63 | > 100 |  | > 100 | > 100 |  | 5.2 | 82.9 | 4.23 | 56.6 |
| CC12CCCC(C#N)(C1)OC2=O (configuration not stated) |  | > 100 |  |  |  |  |  |  |  | > 100 |  | > 100 | > 100 | > 100 | > 100 |  |  |  |  |  |
| Cc1cc2c(C(=O)NCC#N)cccc2n1-c1nc2c(c(NCc3ccccc3)n1)CCCC2 | 0.382 | 1.39 | 0.251 | 0.7 | 0.273 | 0.59 | 0.328 | 3.03 | 0.322 | 1.76 | 0.431 | 2.78 |  | 1.24 |  |  | 0.178 | 0.357 | 0.315 |  |
| Cc1ccccc1C=NC12CC3CC(CC(C3)C1)C2 |  | > 100 |  |  |  |  |  |  |  | > 100 |  | > 100 | > 100 | > 100 | > 100 |  |  | > 100 |  |  |
| O=C(CN(Cc1ccccc1)Cc1ccccc1)N1CCc2c([nH]c3ccccc23)C1c1cccnc1 (configuration not stated) |  | 33.4 |  |  |  |  |  |  |  | > 100 |  | > 100 | 61.5 | > 100 | > 100 |  |  | > 100 |  |  |
| O=CC1CCC=CC1NC(=O)OCc1ccccc1 (configuration not stated) |  | > 100 |  |  |  |  |  |  |  | > 100 |  | > 100 |  | > 100 | > 100 |  |  |  |  |  |
| N#CC(C(=O)/C(=N/NC(=O)c1ccccc1O)C(C#N)c1ccc(Br)cc1)c1ccc(Br)cc1 (configuration not stated) |  | 27 |  |  |  |  |  |  |  | 29.4 |  | > 100 | 26.8 | 33.3 | 29.5 |  |  | 24.7 |  |  |
| CN1CCN(Cc2ccc(NC(=O)c3cncc(C#Cc4c(N)ncc5c(F)cccc45)c3)cc2C(F)(F)F)CC1 | 0.873 | 1.62 | 1.64 | 4.32 | 0.522 | 1.17 |  |  | 0.503 | 1.25 | 2.14 | 7.45 | 1.55 | 1.61 | 1.76 | 0.763 | 0.821 | 1.56 | 0.726 | 0.854 |
| O=C1C(Cl)=C(Cl)C(=O)N1c1ccccc1Cl |  | > 100 |  |  |  |  |  |  |  | > 100 |  | > 100 | > 100 | > 100 | > 100 |  |  | > 100 |  |  |
| CC[O-].CC[O-].COc1ccc(C(=O)[CH-]C(C)=O)cc1OC.COc1ccc(C(=O)[CH-]C(C)=O)cc1OC.[Ti+4] | 48 | > 100 |  |  |  |  |  |  | > 100 | > 100 |  |  | 75.2 | > 100 | > 100 | 29.6 | > 100 | > 100 | 54.8 | > 100 |
| Cn1cnc([N+](=O)[O-])c1Sc1nc2ccccc2o1 |  | 29.3 |  |  |  |  |  |  |  | 15 |  | > 81.2 | 45.2 | 27.7 | 19.8 |  |  | 24.9 |  |  |
